# Laboratory results published in US11124758B2, “Bacteria culture medium and applications thereof” (priority 2013, dated 2021).
# Where two headings read alike, the source gives them in different places.
# Columns and labels:
# [1] = 4° C., cited from earlier work
# [2] = 4° C.; cited from earlier work
# E. coli DH5α strain = assay: Shelf life test of antibiotic premixed in culture medium: suppression of E. coli growth after storage; type: cell-based; settings: for shelf life of culture media containing the antibiotic: 100 μg/ml, LB medium, storage at 4° C.; for suppression of growth of E. coli DH5α after storage: 6, 12, 18 and 24 months at 4° C.
# [3] = less than 25° C.; cited from earlier work
# [4] = in human body; cited from earlier work
# [5] = 100 μg/ml or 1 mg/ml in LB liquid and LB agar plate medium, two months of storage at 4° C., incubated overnight at 37° C.
# [6] = 10 mg/ml in LB liquid and LB agar plate medium, three months of storage at 4° C.
# [7] = 100 mg/ml in LB liquid and LB agar plate medium, four months of storage at 4° C.
smiles,measurement,setting,value
CC1(C)S[C@@H]2[C@H](NC(=O)[C@H](N)c3ccccc3)C(=O)N2[C@H]1C(=O)O [ampicillin],time in which activity reduces by 10%,[1]; dissolved in glucose injection solution,around 1 hour
same,time in which activity reduces by 10%,[1]; dissolved in water or physiological saline (0.9% sodium chloride),2 to 3 days
same,time liquid culture medium and semi-solid agar culture plate medium containing the antibiotic can be kept,[2],about one
same,suppression of E. coli growth after storage,E. coli DH5α strain; [5],unable to suppress E. coli growth completely
same,shelf life of culture media containing the antibiotic,E. coli DH5α strain,no more than two
same,suppression of E. coli growth after storage,E. coli DH5α strain; [6],unable to suppress E. coli growth completely
same,suppression of E. coli growth after storage,E. coli DH5α strain; [7],unable to suppress E. coli growth completely
CC(=O)OCC1=C(C(=O)O)N2C(=O)[C@@H](NC(=O)CSc3ccncc3)[C@H]2SC1.CC(=O)OCC1=C(C(=O)O)N2C(=O)[C@@H](NC(=O)CSc3ccncc3)[C@H]2SC1.c1ccc(CNCCNCc2ccccc2)cc1 [cephapirin benzathine],time injection suspension can be stored stably,[3],≤ 36 months
same,suppression of growth of E. coli DH5α after storage,"E. coli DH5α strain; 0.25 and 1 mg/ml, M9 minimal liquid and agar plate medium",able to completely suppress the growth
same,suppression of growth of E. coli DH5α after storage,"E. coli DH5α strain; 0.25 and 1 mg/ml, YT liquid and YT agar plate medium",able to completely suppress the growth
Cc1onc(-c2ccccc2Cl)c1C(=O)N[C@@H]1C(=O)N2[C@@H]1SC(C)(C)[C@@H]2C(=O)O.Cc1onc(-c2ccccc2Cl)c1C(=O)N[C@@H]1C(=O)N2[C@@H]1SC(C)(C)[C@@H]2C(=O)O.c1ccc(CNCCNCc2ccccc2)cc1 [cloxacillin benzathine],suppression of growth of E. coli DH5α after storage,"E. coli DH5α strain; 0.5 and 2.5 mg/ml, YPD liquid and YPD agar plate medium",able to completely suppress the growth
same,suppression of growth of E. coli DH5α after storage,"E. coli DH5α strain; 0.5 and 2.5 mg/ml, YT liquid and YT agar plate medium",able to completely suppress the growth
CC1(C)S[C@@H]2[C@H](NC(=O)Cc3ccccc3)C(=O)N2[C@H]1C(=O)O.CCN(CC)CCOC(=O)c1ccc(N)cc1 [procaine penicillin],duration of medicine effect,[4],≤ 48 h
same,suppression of growth of E. coli DH5α after storage,"E. coli DH5α strain; 10, 40 and 80 mg/ml, LB liquid and LB agar plate medium",able to completely suppress the growth
same,suppression of growth of E. coli DH5α after storage,"E. coli DH5α strain; 10, 40 and 80 mg/ml, SOC liquid and SOC agar plate medium",able to completely suppress the growth
CC1(C)S[C@@H]2[C@H](NC(=O)Cc3ccccc3)C(=O)N2[C@H]1C(=O)O.CC1(C)S[C@@H]2[C@H](NC(=O)Cc3ccccc3)C(=O)N2[C@H]1C(=O)O.c1ccc(CNCCNCc2ccccc2)cc1 [benzathine benzylpenicillin],duration of medicine effect,[4],3-4 weeks
same,suppression of growth of E. coli DH5α after storage,"E. coli DH5α strain; 0.5 and 2.5 mg/ml, LB liquid and LB agar plate medium",able to completely suppress the growth
same,suppression of growth of E. coli DH5α after storage,"E. coli DH5α strain; 0.5 and 2.5 mg/ml, SOC liquid and SOC agar plate medium",able to completely suppress the growth
CC1(C)S[C@@H]2[C@H](NC(=O)Cc3ccccc3)C(=O)N2[C@H]1C(=O)O.c1ccc(CCNCc2ccccc2)cc1 [benethamine penicillin],suppression of growth of E. coli DH5α after storage,"E. coli DH5α strain; 5 and 25 mg/ml, M9 minimal liquid and agar plate medium",able to completely suppress the growth
same,suppression of growth of E. coli DH5α after storage,"E. coli DH5α strain; 5 and 25 mg/ml, TB liquid and TB agar plate medium",able to completely suppress the growth
CC1(C)S[C@@H]2[C@H](NC(=O)C(C(=O)O)c3ccccc3)C(=O)N2[C@H]1C(=O)O (stereo partly drawn) [carbenicillin],suppression of E. coli growth after storage,E. coli DH5α strain; [5],unable to suppress E. coli growth completely
same,shelf life of culture media containing the antibiotic,E. coli DH5α strain,no more than two
same,suppression of E. coli growth after storage,E. coli DH5α strain; [6],unable to suppress E. coli growth completely
same,suppression of E. coli growth after storage,E. coli DH5α strain; [7],unable to suppress E. coli growth completely
